From patent US20250241901A1, “ACTIVATION OF MNRR1 / CHCHD2 AS A THERAPEUTIC TARGET FOR MITOCHONDRIA ASSOCIATED DISORDERS” (Wayne State University, priority 2024, published 2025) come the findings set out here.

Common to all, as to format: cell-based, human
One assay concerns RBPJk. In words: COX412-luciferase dual luciferase reporter assay in MELAS cybrid cells overexpressing MNRR1. Particulars: MELAS cybrid cells overexpressing MNRR1, 0.5 μM. From the text:
FIGS. 12A-12C: FIG. 12A: Dual luciferase reporter assay showing relative activation of MNRR1-luciferase levels in MELAS cybrid cells overexpressing varying proportions of empty vector (EV) and constitutively active RBPJk (RBP-CA). FIG. 12B: Dual luciferase reporter assay showing relative activation of MNRR1-luciferase levels in MELAS cybrid cells overexpressing an empty vector (EV) or constitutively active RBPJk (RBP-CA) and HIF2α. FIG. 12C: Dual luciferase reporter assay showing relative activation of COX412-luciferase levels in MELAS cybrid cells overexpressing an empty vector (EV), MNRR1, and MNRR1+Auranofin (0.5 μM).
Luciferase reporter assay: Luciferase assays were performed with the dual-luciferase reporter assay kit (Promega). Briefly, cells were lysed in 1× passive lysis buffer (Promega) and 25 μL of lysate was used for assay with a tube luminometer using an integration time of 10 s. Transfection efficiency was normalized with the co-transfected pRL-SV40 Renilla luciferase expression plasmid.

The next assay deals with MNRR1. In words: MNRR1 protein levels in MELAS cybrid cells (immunoblot). Particulars: MELAS cybrid cells, 10 μM, 24 h. On the procedure: FIGS. 6A-6C: FIG. 6A: Above, Chemical structures of nitazoxanide, its metabolites, and similar compounds. Abbreviations: P4, Phenyl-4-aminosalicylic acid; 4ABA, 4-Aminobenzanilide; 4ASA, 4-Amino salicylic acid; BA, Benzanilide; PBO, Phenyl benzoate; PSA, Phenyl salicylic acid; 2AN, 2-Amino 5-nitrothiazole. Below, Equal amounts of lysates of MELAS cells treated with Vehicle (DMSO) or the various compounds (10 μM) for 24 h were separated on an SDS-PAGE gel and probed for MNRR1 levels. Actin was probed as a loading control and numbers below represent an average and SD of 3 biological replicates. FIGS. 6B-6C: MNRR1 transcript levels are shown relative to 18S rRNA (n=4 biological replicates, error bars represent SE). In all figures, * indicates p<0.05, ** indicates p<0.005.
FIGS. 11A-11F: RBPJk and HIF2α compete for binding at the ORE in the MNRR1 promoter to regulate transcription. FIG. 11A: Chromatin immunoprecipitation-qPCR assessing binding of HIF2α to the endogenous MNRR1 promoter in MELAS cybrid cells with 0% (CL9) and 70% heteroplasmy (DW7). FIG. 11B: Dual luciferase reporter assay showing relative activation of MNRR1-luciferase levels in MELAS cybrid cells overexpressing varying proportions of constitutively active RBPJk (RBP-CA) and HIF2α. FIG. 11C: Dual luciferase reporter assay showing relative activation of MNRR1-luciferase levels in MELAS cybrid cells overexpressing the WT (FIG. 9A) or ΔORE (positions 47-53 in SEQ ID NO: 25 in FIG. 9C) promoter with EV (dotted line) or HIF2α. FIG. 11D: Equal amounts of Control or HIFα knockdown (KD) MELAS cybrid cell lysates were separated on an SDS-PAGE gel and probed for HIF2α and MNRR1 levels. Tubulin was probed as loading control. FIG. 11E: Oxygen consumption measured from Control or HIFα knockdown (KD) MELAS cybrid cells. (n=4 biological replicates, error bars represent SE). FIG. 11F: Left, Oxygen consumption measured from MELAS cybrid cells treated with vehicle (DMSO) or PT2385 (10 μM), an inhibitor of HIF2α function, for 24 h. Right, Equal amounts of MELAS cybrid cell lysates treated with vehicle (DMSO) or PT2385 (10 μM) for 24 h, separated on an SDS-PAGE gel, and probed for MNRR1 levels. GAPDH was probed as a loading control.
Immunoblotting: Immunoblotting was performed as described previously. Cell lysates for immunoblotting were prepared using RIPA buffer (Abcam, Waltham, MA) and included a protease and phosphatase inhibitor cocktail (Sigma, St. Louis, MO). […] The clear supernatants were transferred to new tubes and quantified using the Bradford reagent with BSA as standard (BioRad, Hercules. CA). […] For detection after immunoblotting, the SuperSignal™ West Pico PLUS substrate (ThermoFisher, Waltham, MA) was used to generate chemiluminescence signal, which was detected with X-Ray film (RadTech, Vassar, MI).

Another assay concerns MELAS cybrid cells. As to the kind of experiment: Oxygen consumption of MELAS cybrid cells (Seahorse). Particulars: 10 μM, 24 h. On the procedure:
FIGS. 7A-7E: MNRR1 activation by tizoxanide enhances mtDNA biogenesis and mitophagy to shift heteroplasmy in MELAS cells. FIG. 7A: Oxygen consumption measured from MELAS cybrid cells treated with vehicle (DMSO) or tizoxanide (10 μM) for 48 h (n=4 biological replicates, error bars represent SE). FIG. 7B: Haelll restriction enzyme digestion of a PCR-amplified fragment of mtDNA harboring the m.3243A>G mutation from DW7 cells treated with vehicle (DMSO) or tizoxanide (10 μM) for 144 h. […] FIG. 7C: Genes identified using qPCR of MELAS cybrid cells stably overexpressing EV or MNRR1. FIG. 7D: MtDNA levels are shown relative to nuclear DNA (nDNA) (GAPDH) (n=5 biological replicates, error bars represent SE). […]
FIGS. 11A-11F: RBPJk and HIF2α compete for binding at the ORE in the MNRR1 promoter to regulate transcription. […] FIG. 11E: Oxygen consumption measured from Control or HIFα knockdown (KD) MELAS cybrid cells. […] FIG. 11F: Left, Oxygen consumption measured from MELAS cybrid cells treated with vehicle (DMSO) or PT2385 (10 μM), an inhibitor of HIF2α function, for 24 h. […]
Intact cellular oxygen consumption and measurement of ATP: Cellular oxygen consumption was measured with a Seahorse XFe24 Bioanalyzer (Agilent). Cells were plated at a concentration of 3.5×10^4 per well a day prior to treatment and basal oxygen consumption was measured 48 h after treatments, as described. […]

Consider `CC(=O)OC[C@H]1O[C@@H]([S-])[C@H](OC(C)=O)[C@@H](OC(C)=O)[C@@H]1OC(C)=O.CCP(CC)CC.[Au+]` [Auranonfin, Auranofin], for which the “MNRR1 induced transcription (COX412-luciferase)” value with RBPJk is “able to block the effects of MNRR1 induced transcription”.

As to `CS(=O)(=O)c1ccc(Oc2cc(F)cc(C#N)c2)c2c1[C@H](O)C(F)(F)C2` [PT2385], the MNRR1 protein result with MNRR1 is reported as “rebound increase”. In addition, in the assay on MELAS cybrid cells, the OCR result is recorded as “rebound increase”.
